Measured values published in patent publication US9402821B2, “Methods and pharmaceutical compositions for treatment of cystic fibrosis” (INSERM (Institut National de la sante et de la Recherche …, priority 2012, dated 2016).
Entries after “also recorded” stand apart in the source; their conditions may differ.

Columns and labels:
C57BL/6J mice = assay: LPS-induced lung inflammation mouse model, chemokines in BAL fluid by ELISA; format: in vivo; settings: sulindac 40 mg/kg i.p. 1 h before intratracheal LPS 5 mg/kg
Method: A. Protocol for lung inflammation mouse models. Lung inflammation was induced by two intra tracheal instillation of LPS (5 mg/kg), 24 h and 6 h prior sacrifice. Sulindac (40 mg/kg) or diluents were administered by intraperitoneal injection 1 h before LPS instillation. B. Mouse macrophage inflammatory protein (MIP-2) was monitored in BAL fluid by ELISA assay. LPS-stimulated MIP-2 production was inhibited by sulindac.
Male C57BL/6J mice (8-10 wk old) were treated by intraperitoneal (IP) injection of sulindac (40 mg/kg) or vehicle one hour before the time of endotoxin administration which caused lung injury. Lung inflammation was induced by LPS from E. coli (Sigma) prepared in saline and administered by injection intra-tracheal. In order to track at a single time point after LPS challenge both the early humoral and the late cell infiltrating components of the inflammatory response, a volume of 50 μl LPS solution (5 mg/kg) was administered at two consecutive doses with a 18 h interval between doses. This challenge method enables to track both cytokine and cellular responses to induction of inflammation. […] The chemokines keratinocyte chemoattractant (KC) and mouse macrophage inflammatory protein (MIP-2) were monitored in BAL fluid following the corresponding manufacturers' protocols using a standard sandwich enzyme-linked immune absorbent assay (ELISA, R&D Systems).

IκB = assay: Western blot of cytosolic IκB after TNFα; format: cell-based; settings: HeLa control cells; 500 μM 1 h pre-treatment; TNFα 10 ng/ml 30 min
Method: HeLa control cells were pre-treated with diluent (0.5%) or sulindac (500 μM) for 1 h and stimulated or not with 10 ng/ml TNFα for 30 min. Nuclear and cytosolic fractions were obtained by differential centrifugation. A. Analysis by western blot of cytosolic IKb quantity. The Iκb quantity was expressed in percent of control. […] B. Analysis by western blot of nuclear p65 quantity. Nuclear p65 quantity was expressed in percent of diluents+TNFα.
Nuclear and cytosolic fraction was obtained by differential centrifugation. Briefly, cells were lyses in buffer C (10 mM Hepes, 60 mM KCl, 1 mM EDTA, 7.8% NP40, 100 mM DTT, pH 7.6). After centrifugation, nucleus pellet were lyses in buffer N (27 mM Tris, 566 mM NaCl, 2 mM MgCl2, 1.3 mM EDTA, pH 8). Aliquots of fraction (30 μg protein) were separated by SDS-PAGE and transferred on PVDF membrane. The western blots were probed with mouse monoclonal antibodies specific for IκB or p65 (Santa-Cruz) 2 h at room temperature.

`CC1=C(CC(=O)O)c2cc(F)ccc2/C1=C\c1ccc([S+](C)[O-])cc1` (stereo not drawn) [sulindac, (Z)-5-fluoro-2-methyl-1-[p-(methylsulfinyl)benzylidene]-indene-3-acetic acid] was tested, and the “KC (keratinocyte-derived chemokine) in BAL fluid” value (C57BL/6J mice) was “decreased the secretion of KC and MIP-2”, the “MIP-2 in BAL fluid” value (C57BL/6J mice) was “inhibited; also recorded: decreased the secretion of KC and MIP-2” and the “degradation of cytosolic IκB induced by TNFα” value (IκB) was “did not modified this effect; also recorded: did not affect the degradation of IκB”.
